Toxic doses and inconclusive results are not listed.
Tested on: L1210 leukemia ip in BDF1 mice, survival T/C
Test: NCI In Vivo Anticancer Drug Screen. Data for tumor model L1210 Leukemia (intraperitoneal) in B6D2F1 (BDF1) mice
Settings: endpoint: mean survival time, higher = longer survival
Summary of the method: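 Tumor cells were implanted, animals were treated, and survival was followed. The result divides the treated measurement by the vehicle-control measurement.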

[1] = dose: 100.0 mg/kg/injection, schedule: Q04DX003 (ip), vehicle: saline with Tween-80
[2] = dose: 100.0 mg/kg/injection, schedule: Q04DX003 (ip), vehicle: Klucel (hydroxypropylcellulose) (HPC)
[3] = dose: 200.0 mg/kg/injection, schedule: Q04DX003 (ip), vehicle: Klucel (hydroxypropylcellulose) (HPC)
[4] = dose: 400.0 mg/kg/injection, schedule: Q04DX003 (ip), vehicle: Klucel (hydroxypropylcellulose) (HPC)
[5] = dose: 200.0 mg/kg/injection, schedule: Q04DX003 (ip), vehicle: saline with Tween-80
[6] = dose: 400.0 mg/kg/injection, schedule: Q04DX003 (ip), vehicle: saline with Tween-80
[7] = dose: 100.0 mg/kg/injection, schedule: Q01DX009 (ip), vehicle: Klucel (hydroxypropylcellulose) (HPC)
[8] = dose: 200.0 mg/kg/injection, schedule: Q01DX009 (ip), vehicle: Klucel (hydroxypropylcellulose) (HPC)
[9] = dose: 400.0 mg/kg/injection, schedule: Q01DX009 (ip), vehicle: Klucel (hydroxypropylcellulose) (HPC)
[10] = dose: 100.0 mg/kg/injection, schedule: Q01DX009 (ip), vehicle: saline with Tween-80
[11] = dose: 200.0 mg/kg/injection, schedule: Q01DX009 (ip), vehicle: saline with Tween-80
[12] = dose: 400.0 mg/kg/injection, schedule: Q01DX009 (ip), vehicle: saline with Tween-80
[13] = dose: 100.0 mg/kg/injection, schedule: Q04DX002 (ip), vehicle: saline

CS(=O)(=O)Nc1ccc(Nc2c3ccccc3nc3cc(N)ccc23)cc1
T/C (dose: 0.4 mg/kg/injection, schedule: Q01DX009 (ip), vehicle: saline): 152 % of control
T/C (dose: 1.25 mg/kg/injection, schedule: Q01DX009 (ip), vehicle: saline): 100 % of control
T/C (dose: 4.0 mg/kg/injection, schedule: Q01DX009 (sc), vehicle: saline): 123 % of control
T/C (dose: 5.0 mg/kg/injection, schedule: Q01DX009 (ip), vehicle: saline): 88 % of control
T/C (dose: 20.0 mg/kg/injection, schedule: Q01DX001 (ip), vehicle: saline): 92 % of control
T/C (dose: 40.0 mg/kg/injection, schedule: Q01DX001 (ip), vehicle: saline): 89 % of control

O=C1CCSC(=S)N1c1cccc(C(F)(F)F)c1
T/C (dose: 25.0 mg/kg/injection, schedule: Q04DX003 (ip), vehicle: saline with Tween-80): 101 % of control
T/C (dose: 50.0 mg/kg/injection, schedule: Q04DX003 (ip), vehicle: saline with Tween-80): 104 % of control
T/C [1]: 104 % of control

O=P1(Cc2ccccc2)C(c2ccccc2)=C(O)CC1c1ccccc1 (centres undefined)
T/C [2]: 101 % of control
T/C [3]: 99 % of control
T/C [4]: 89 % of control

O=[N+]([O-])c1ccc(Oc2ccc(Cl)cc2Cl)c([N+](=O)[O-])c1
T/C (dose: 100.0 mg/kg/injection, schedule: Q01DX001 (ip), vehicle: saline with Tween-80): 103 % of control
T/C [1]: 105 % of control
T/C (dose: 200.0 mg/kg/injection, schedule: Q01DX001 (ip), vehicle: saline with Tween-80): 94 % of control
T/C [5]: 102 % of control
T/C (dose: 222.0 mg/kg/injection, schedule: Q01DX Z (ip), vehicle: methylcellulose (MC)): 100 % of control
T/C (dose: 333.0 mg/kg/injection, schedule: Q01DX Z (ip), vehicle: methylcellulose (MC)): 92 % of control
T/C (dose: 400.0 mg/kg/injection, schedule: Q01DX001 (ip), vehicle: saline with Tween-80): 97 % of control
T/C [6]: 99 % of control
T/C (dose: 500.0 mg/kg/injection, schedule: Q01DX Z (ip), vehicle: methylcellulose (MC)): 95 % of control

CCCCNC(=O)C(C)S(=O)(=O)c1ccc(C)cc1 (centres undefined)
T/C [1]: 100 % of control
T/C [5]: 100 % of control
T/C [6]: 98 % of control

CCCCCC[n+]1cccc(C#N)c1
T/C (dose: 18.75 mg/kg/injection, schedule: Q01DX009 (ip), vehicle: saline): 95 % of control
T/C (dose: 37.5 mg/kg/injection, schedule: Q01DX009 (ip), vehicle: saline): 95 % of control
T/C (dose: 75.0 mg/kg/injection, schedule: Q01DX001 (ip), vehicle: saline): 113 % of control
T/C (dose: 75.0 mg/kg/injection, schedule: Q01DX009 (ip), vehicle: saline): 94 % of control
T/C (dose: 75.0 mg/kg/injection, schedule: Q04DX003 (ip), vehicle: saline): 97 % of control
T/C (dose: 150.0 mg/kg/injection, schedule: Q01DX001 (ip), vehicle: saline): 95 % of control
T/C (dose: 150.0 mg/kg/injection, schedule: Q04DX003 (ip), vehicle: saline): 101 % of control
T/C (dose: 300.0 mg/kg/injection, schedule: Q01DX001 (ip), vehicle: saline): 100 % of control

O=C(Nc1cccc([N+](=O)[O-])c1)Nc1ccccc1C(F)(F)F
T/C [7]: 94 % of control
T/C [8]: 91 % of control
T/C [9]: 93 % of control

COC(=O)c1ccc(C(=O)O)[n+]([O-])c1
T/C [7]: 93 % of control
T/C [2]: 97 % of control
T/C [8]: 88 % of control
T/C [3]: 103 % of control
T/C [4]: 97 % of control

CCCCCCCCOc1ccc(/C=N\N=C\c2ccc(OCCCCCCCC)cc2)cc1
T/C [10]: 105 % of control
T/C [11]: 91 % of control
T/C [12]: 92 % of control

CC(=O)Nc1cc([N+](=O)[O-])ccc1CC(O)c1ccccc1Cl (centres undefined)
T/C [7]: 92 % of control
T/C [2]: 97 % of control
T/C [8]: 103 % of control
T/C [3]: 108 % of control
T/C [9]: 104 % of control
T/C [4]: 103 % of control

CCc1ccc(NC(=S)NC(=O)C(C)Oc2ccccc2)cc1 (centres undefined)
T/C [13]: 110 % of control
T/C (dose: 200.0 mg/kg/injection, schedule: Q04DX002 (ip), vehicle: saline): 103 % of control
T/C (dose: 400.0 mg/kg/injection, schedule: Q04DX002 (ip), vehicle: saline): 90 % of control

O=C(/C=C/c1ccccc1O)c1ccccc1
T/C [7]: 98 % of control
T/C [10]: 110 % of control
T/C [2]: 113 % of control
T/C [1]: 94 % of control
T/C [8]: 100 % of control
T/C [11]: 101 % of control
T/C [3]: 113 % of control
T/C [5]: 102 % of control
T/C [9]: 90 % of control
T/C [12]: 102 % of control
T/C [4]: 103 % of control
T/C [6]: 96 % of control

COC(=O)/C=C(\C)Sc1ccc(Cl)cc1
T/C (dose: 100.0 mg/kg/injection, schedule: Q04DX002 (ip), vehicle: other): 91 % of control
T/C (dose: 200.0 mg/kg/injection, schedule: Q04DX002 (ip), vehicle: other): 98 % of control
T/C (dose: 400.0 mg/kg/injection, schedule: Q04DX002 (ip), vehicle: other): 102 % of control

O=C(Nc1ccc(Cl)c([N+](=O)[O-])c1)Oc1ccccc1F
T/C [7]: 92 % of control
T/C [2]: 97 % of control
T/C [8]: 101 % of control
T/C [3]: 97 % of control
T/C [4]: 96 % of control

O=C(O)C1C[n+]2ccccc2O1 (centres undefined)
T/C (dose: 50.0 mg/kg/injection, schedule: Q01DX009 (ip), vehicle: saline): 116 % of control
T/C (dose: 100.0 mg/kg/injection, schedule: Q04DX003 (ip), vehicle: saline): 97 % of control
T/C (dose: 200.0 mg/kg/injection, schedule: Q04DX003 (ip), vehicle: saline): 103 % of control

COc1ccc(OC)c(NC(=O)N(C)CCC#N)c1
T/C [7]: 106 % of control
T/C [8]: 101 % of control
T/C [9]: 106 % of control

CC(=O)CSc1sc(C(C)=O)c(N)c1C#N
T/C [10]: 91 % of control
T/C [11]: 91 % of control
T/C [12]: 90 % of control

CC(C#N)NCc1ccc2c(c1)OCO2 (centres undefined)
T/C (dose: 50.0 mg/kg/injection, schedule: Q01DX001 (ip), vehicle: carboxymethylcellulose (CMC)): 112 % of control
T/C (dose: 200.0 mg/kg/injection, schedule: Q01DX001 (ip), vehicle: carboxymethylcellulose (CMC)): 96 % of control

CN(C)N=Nc1cn(C)c(=O)[nH]c1=O
T/C (dose: 50.0 mg/kg/injection, schedule: Q04DX003 (ip), vehicle: water): 114 % of control
T/C (dose: 400.0 mg/kg/injection, schedule: Q04DX003 (ip), vehicle: water): 112 % of control

O=C(C[n+]1ccccc1)N/N=C/c1ccc([N+](=O)[O-])s1
T/C (dose: 12.5 mg/kg/injection, schedule: Q01DX009 (ip), vehicle: water): 96 % of control
T/C (dose: 25.0 mg/kg/injection, schedule: Q01DX009 (ip), vehicle: water): 101 % of control

CC(=O)OCC1OC(NC(=O)N(CCCl)N=O)C(OC(C)=O)C(OC(C)=O)C1OC(C)=O (centres undefined)
T/C (dose: 6.0 mg/kg/injection, schedule: Q01DX001 (ip), vehicle: saline with Tween-80): 246 % of control
T/C (dose: 9.0 mg/kg/injection, schedule: Q01DX001 (ip), vehicle: saline with Tween-80): 342 % of control
T/C (dose: 13.0 mg/kg/injection, schedule: Q01DX001 (ip), vehicle: saline with Tween-80): 428 % of control
T/C (dose: 20.0 mg/kg/injection, schedule: Q01DX001 (ip), vehicle: saline with Tween-80): 393 % of control
T/C (dose: 30.0 mg/kg/injection, schedule: Q01DX001 (ip), vehicle: saline with Tween-80): 324 % of control

BrCC1OCCCO1
T/C (dose: 25.0 mg/kg/injection, schedule: Q01DX009 (ip), vehicle: saline with Tween-80): 96 % of control
T/C (dose: 25.0 mg/kg/injection, schedule: Q04DX002 (ip), vehicle: saline): 100 % of control
T/C (dose: 50.0 mg/kg/injection, schedule: Q04DX002 (ip), vehicle: saline): 118 % of control
T/C [10]: 114 % of control
T/C (dose: 100.0 mg/kg/injection, schedule: Q04DX002 (ip), vehicle: saline with Tween-80): 117 % of control
T/C [13]: 100 % of control

COc1cc(N=C(N)N=C(N)N)c2ncccc2c1
T/C (dose: 75.0 mg/kg/injection, schedule: Q01DX001 (ip), vehicle: carboxymethylcellulose (CMC)): 97 % of control

Cc1cc(S(=O)(=O)F)ccc1NC(=O)NCc1ccc(N2C(N)=NC(N)=NC2(C)C)cc1
T/C [2]: 108 % of control
T/C [3]: 100 % of control
T/C [4]: 106 % of control

CCCCN=C=NCCC[N+](C)(C)C
T/C [2]: 98 % of control
T/C [3]: 107 % of control

Reference: PubChem BioAssay AID248 (DTP/NCI, 2004)
